Experimental findings from patent publication US20220009918A1, “Chemical Compounds” (GlaxoSmithKline Intellectual Property Development Limited, priority 2018, published 2022) are described below.

For this experiment, the target named is T1, human H-PGDS (Homo sapiens, UniProt O60760).
T1 construct: Full length human H-PGDS cDNA (Invitrogen Ultimate ORF IOH13026) was amplified by PCR; 6-His (N); TEV protease cleavage site (N); made in house; host or cells: E. coli BL21 (DE3*) for H-PGDS; Sf9 insect cells (baculovirus) for COX-2
As to the kind of experiment: H-PGDS RapidFire high throughput mass spectrometry assay. Format: biochemical. The conditions noted are these: inhibition of conversion of PGH2 to PGD2 by H-PGDS; mean pIC50; read-out: Potency Range (mean pIC50) (converted). The protocol: H-PGDS RapidFire™ High Throughput Mass Spectrometry Assay
The H-PGDS RapidFire™ mass spectrometric assay monitors conversion of prostaglandin H2 (PGH2) to prostaglandin D2 (PGD2) by haematopoietic prostaglandin D synthase (H-PGDS). In the assay format described here, the substrate (PGH2) is formed in situ by the action of cyclooxygenase-2 on arachidonic acid. This first step is set up to be fast, and generates a burst of PGH2 at ˜10 μM. The PGH2 is then further converted to PGD2 by the H-PGDS enzyme. […] Plates are then read on the RapidFire™ high throughput solid phase extraction system (Agilent) which incorporates a solid phase extraction step coupled to a triple quadrupole mass spectrometer (AB SCIEX). Relative levels of PGD2 and PGF2α, which acts as a surrogate for substrate, are measured and a percent conversion calculated. Inhibitors are characterised as compounds which lower the conversion of PGH2 to PGD2.
Full length human H-PGDS cDNA (Invitrogen Ultimate ORF IOH13026) was amplified by PCR with the addition of a 5′ 6-His tag and TEV protease cleavage site. The PCR product was digested with NdeI and XhoI and ligated into pET22b+ (Merck Novagen®). Expression was carried out in E. coli strain BL21 (DE3*) using auto-induction Overnight Express™ Instant TB medium (Merck Novagen®) supplemented with 1% glycerol. The culture was first grown at 37° C. and the temperature was reduced to 25° C. when OD600 reached 2.0. Cells were harvested by centrifugation after a further 18 hours. 10 g of E. coli cell pellet was suspended to a total volume of 80 mL in lysis buffer (20 mM Tris-Cl pH 7.5, 300 mM NaCl, 20 mM imidazole, 5 mM p-mercaptoethanol, 10% glycerol). 1 mg/mL protease inhibitors (Protease Inhibitor Cocktail Set III, Merck Calbiochem®) and 1 mg/mL lysozyme were added to the cell suspension. The suspension was then sonicated for 5 min (UltraSonic Processor VCX 750, Cole-Parmer Instrument Co.) with a micro probe (50% amplitude, 10 sec on/off) and then centrifuged at 100,000 g for 90 minutes (at 4° C.). The supernatant was loaded onto a Ni-NTA HiTrap column (5 mL, GE Healthcare, pre-equilibrated in lysis buffer). The column was washed with 10 column volumes of lysis buffer and eluted with lysis buffer containing 500 mM imidazole. The pooled protein peak fractions were concentrated using a 10 kDa centrifugal filter at 3500 g and 4° C. (Amicon Ultra-15 centrifugal filter unit with Ultracel-10 membrane from Millipore). Further purification of the concentrated protein was carried out using gel filtration chromatography on a HiLoad 26/600 Superdex 75 preparative grade column (GE Healthcare Life Sciences) using 50 mM Tris pH 7.5, 50 mM NaCl, 1 mM dithiothreitol, 1 mM MgCl2. Fractions containing the protein were pooled, concentrated as described above, and stored at −80° C.
The full length human COX-2 gene (accession number L15326) was amplified by PCR to generate an EcoRI—HindIII fragment containing an in-frame FLAG tag. This was subcloned into pFastBac 1 (Invitrogen). The COX-2 FLAG plasmid was recombined into the baculovirus genome according to the BAC-to-BAC protocol described by Invitrogen. Transfection into Spodoptera frugiperda (Sf9) insect cells was performed using Cellfectin (Invitrogen), according to the manufacturer's protocol. Super Sf9 cells were cultured in EX420 media (SAFC Biosciences) to a density of approximately 1.5×10^6 cells/mL within a wave bioreactor. Recombinant virus was added at a Multiplicity of Infection (MOI) of 5 and the culture was allowed to continue for 3 days. Cells were harvested using a continuous feed centrifuge run at 2500 g at a rate of approximately 2 L/min with cooling. The resultant cell slurry was re-centrifuged in pots (2500 g, 20 min, 4° C.) and the cell paste was stored at −80° C. […]

Each structure is given as a SMILES string.

T1 sequence (O60760 whole entry): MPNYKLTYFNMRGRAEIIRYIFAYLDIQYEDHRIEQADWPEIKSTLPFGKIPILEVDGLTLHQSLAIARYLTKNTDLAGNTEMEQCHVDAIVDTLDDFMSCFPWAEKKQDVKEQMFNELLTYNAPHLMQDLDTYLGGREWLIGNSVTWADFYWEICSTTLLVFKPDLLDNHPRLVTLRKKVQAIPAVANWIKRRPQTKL

Take `N#Cc1cccc(-c2ncc(C(=O)N[C@H]3CCNC3=O)s2)c1` [Example 43, (S)-2-(3-Cyanophenyl)-N-(2-oxopyrrolidin-3-yl)thiazole-5-carboxamide]: the IC50 was 102 to 1000 nM.

Regarding `Cc1ccc(-c2ncc(C(=O)N[C@H]3CCNC3=O)s2)cc1` [Example 44, (S)-N-(2-Oxopyrrolidin-3-yl)-2-(p-tolyl)thiazole-5-carboxamide], the IC50 was 1020 to 10000 nM.

For the molecule `O=C(N[C@H]1CCNC1=O)c1cnc(-c2cccc(F)c2)s1` [Example 45, (S)-2-(3-Fluorophenyl)-N-(2-oxopyrrolidin-3-yl)thiazole-5-carboxamide], the IC50 was 10.2 to 100 nM.

As for `Cc1cccc(-c2ncc(C(=O)N[C@H]3CCNC3=O)s2)n1` [Example 46, (S)-2-(6-Methylpyridin-2-yl)-N-(2-oxopyrrolidin-3-yl)thiazole-5-carboxamide], the IC50 is 102 to 1000 nM.

With `Cc1ccnc(-c2ncc(C(=O)N[C@H]3CCNC3=O)s2)c1` [Example 47, (S)-2-(4-Methylpyridin-2-yl)-N-(2-oxopyrrolidin-3-yl)thiazole-5-carboxamide], the IC50 is 10.2 to 100 nM.

`Cc1cc(-c2ncc(C(=O)N[C@H]3CCNC3=O)s2)cc(C(F)F)c1` [Example 48, (S)-2-(3-(Difluoromethyl)-5-methylphenyl)-N-(2-oxopyrrolidin-3-yl)thiazole-5-carboxamide]: the IC50 was 10.2 to 100 nM.

With `O=C(N[C@H]1C(=O)N[C@@H]2CCC[C@@H]21)c1cnc(-c2cc(F)cc(Cl)c2)s1` [Example 50, 2-(3-Chloro-5-fluorophenyl)-N-((3R,3aS,6aR)-2-oxooctahydrocyclopenta[b]pyrrol-3-yl)thiazole-5-carboxamide], the IC50 is 102 to 1000 nM.

As to `O=C(N[C@@H]1C(=O)N[C@H]2CCC[C@H]21)c1cnc(-c2cc(F)cc(Cl)c2)s1` [Example 51, 2-(3-Chloro-5-fluorophenyl)-N-((3S,3aR,6aS)-2-oxooctahydrocyclopenta[b]pyrrol-3-yl)thiazole-5-carboxamide], the IC50 is 1.02 to 10 nM.

As to `O=C(N[C@@H]1C(=O)N[C@H]2COC[C@H]21)c1cnc(-c2cc(F)cc(Cl)c2)s1` [Example 53, 2-(3-Chloro-5-fluorophenyl)-N-((3S,3aR,6aR)-2-oxohexahydro-1H-furo[3,4-b]pyrrol-3-yl)thiazole-5-carboxamide], the IC50 was 10.2 to 100 nM.

In the case of `O=C(N[C@H]1C(=O)N[C@@H]2COC[C@@H]21)c1cnc(-c2cc(F)cc(Cl)c2)s1` [Example 54, 2-(3-Chloro-5-fluorophenyl)-N-((3R,3aS,6aS)-2-oxohexahydro-1H-furo[3,4-b]pyrrol-3-yl)thiazole-5-carboxamide], the IC50 was 10.2 to 100 nM.

Take `O=C(N[C@@H]1CC2(COC2)NC1=O)c1cnc(-c2cc(F)cc(Cl)c2)s1` [Example 56, (R)-2-(3-Chloro-5-fluorophenyl)-N-(6-oxo-2-oxa-5-azaspiro[3.4]octan-7-yl)thiazole-5-carboxamide]: the IC50 was 102 to 1000 nM.

Take `O=C(N[C@H]1CC2(COC2)NC1=O)c1cnc(-c2cc(F)cc(Cl)c2)s1` [Example 57, (S)-2-(3-Chloro-5-fluorophenyl)-N-(6-oxo-2-oxa-5-azaspiro[3.4]octan-7-yl)thiazole-5-carboxamide]: the IC50 is 1.02 to 10 nM.

As for `O=C(N[C@H]1C(=O)N[C@H]2CCC[C@H]21)c1cnc(-c2cc(F)cc(Cl)c2)s1` [Example 59, 2-(3-Chloro-5-fluorophenyl)-N-((3R,3aR,6aS)-2-oxooctahydrocyclopenta[b]pyrrol-3-yl)thiazole-5-carboxamide], the IC50 is 102 to 1000 nM.

For `O=C(N[C@@H]1C(=O)N[C@@H]2CCC[C@H]12)c1cnc(-c2cc(F)cc(Cl)c2)s1` [Example 60, 2-(3-Chloro-5-fluorophenyl)-N-((3S,3aS,6aR)-2-oxooctahydrocyclopenta[b]pyrrol-3-yl)thiazole-5-carboxamide], the IC50 is 10.2 to 100 nM.

Take `C[C@@H]1C[C@@H](NC(=O)c2cnc(-c3cc(F)cc(Cl)c3)s2)C(=O)N1` [Example 61, 2-(3-Chloro-5-fluorophenyl)-N-((3R,5R)-5-methyl-2-oxopyrrolidin-3-yl)thiazole-5-carboxamide]: the IC50 was 102 to 1000 nM.

Take `C[C@@H]1C[C@H](NC(=O)c2cnc(-c3cc(F)cc(Cl)c3)s2)C(=O)N1` [Example 62, 2-(3-Chloro-5-fluorophenyl)-N-((3S,5R)-5-methyl-2-oxopyrrolidin-3-yl)thiazole-5-carboxamide]: the IC50 was 10.2 to 100 nM.

`CN1CC[C@H](NC(=O)c2cnc(-c3cc(F)cc(Cl)c3)s2)C1=O` [Example 64, (S)-2-(3-Chloro-5-fluorophenyl)-N-(1-methyl-2-oxopyrrolidin-3-yl)thiazole-5-carboxamide]: the IC50 is 10.2 to 100 nM.

As for `CN(C(=O)c1cnc(-c2cc(F)cc(Cl)c2)s1)[C@H]1CCNC1=O` [Example 66, (S)-2-(3-Chloro-5-fluorophenyl)-N-methyl-N-(2-oxopyrrolidin-3-yl)thiazole-5-carboxamide], the IC50 was 1020 to 10000 nM.

`CN(C(=O)c1cnc(-c2cc(F)cc(Cl)c2)s1)[C@@H]1CCNC1=O` [Example 67, (R)-2-(3-Chloro-5-fluorophenyl)-N-methyl-N-(2-oxopyrrolidin-3-yl)thiazole-5-carboxamide]: the IC50 is above 10000 nM.

In the case of `COc1cccc(-c2ncc(C(=O)N[C@H]3CCNC3=O)s2)c1` [Example 68, (S)-2-(3-Methoxyphenyl)-N-(2-oxopyrrolidin-3-yl)thiazole-5-carboxamide], the IC50 was 10.2 to 100 nM.

As for `O=C(N[C@H]1CCNC1=O)c1cnc(-c2cccc(O)c2)s1` [Example 69, (S)-2-(3-Hydroxyphenyl)-N-(2-oxopyrrolidin-3-yl)thiazole-5-carboxamide], the IC50 is 10.2 to 100 nM.

For the molecule `C[C@]1(NC(=O)c2cnc(-c3cc(F)cc(Cl)c3)s2)CCNC1=O` [Example 72, (S)-2-(3-Chloro-5-fluorophenyl)-N-(3-methyl-2-oxopyrrolidin-3-yl)thiazole-5-carboxamide], the IC50 is 10.2 to 100 nM.

Turning to `C[C@@]1(NC(=O)c2cnc(-c3cc(F)cc(Cl)c3)s2)CCNC1=O` [Example 73, (R)-2-(3-Chloro-5-fluorophenyl)-N-(3-methyl-2-oxopyrrolidin-3-yl)thiazole-5-carboxamide], the IC50 is 102 to 1000 nM.

Turning to `C[C@H]1CNC(=O)[C@H]1NC(=O)c1cnc(-c2cc(F)cc(Cl)c2)s1` [Example 75, 2-(3-Chloro-5-fluorophenyl)-N-((3S,4S)-4-methyl-2-oxopyrrolidin-3-yl)thiazole-5-carboxamide], the IC50 was 10.2 to 100 nM.

Regarding `C[C@@H]1CNC(=O)[C@@H]1NC(=O)c1cnc(-c2cc(F)cc(Cl)c2)s1` [Example 76, 2-(3-Chloro-5-fluorophenyl)-N-((3R,4R)-4-methyl-2-oxopyrrolidin-3-yl)thiazole-5-carboxamide], the IC50 was 1020 to 10000 nM.

Consider `O=C(N[C@H]1CCNC1=S)c1cnc(-c2cc(F)cc(Cl)c2)s1` [Example 77, (S)-2-(3-Chloro-5-fluorophenyl)-N-(2-thioxopyrrolidin-3-yl)thiazole-5-carboxamide], for which the IC50 is 1.02 to 10 nM.

Regarding `O=C(N[C@H]1CCNC1=[Se])c1cnc(-c2cc(F)cc(Cl)c2)s1` [Example 78, (S)-2-(3-chloro-5-fluorophenyl)-N-(2-selenoxopyrrolidin-3-yl)thiazole-5-carboxamide], the IC50 is 1.02 to 10 nM.
